Measurements from PMC9490236, “Accurate de novo design of membrane-traversing macrocycles” (Cell, 2022).
Like-named read-outs stand apart in the source and are kept apart here. Where a SMILES comes first, the peptide text is derived from it. [ ]: non-standard residue; d: D form. NMeF = CN[C@@H](Cc1ccccc1)C(=O)O; NMeI = CC[C@H](C)[C@H](NC)C(=O)O; dNMeF = CN[C@H](Cc1ccccc1)C(=O)O; NMeL = CN[C@@H](CC(C)C)C(=O)O; dNMeL = CN[C@H](CC(C)C)C(=O)O; dNMeV = CN[C@@H](C(=O)O)C(C)C; NMeA = CN[C@@H](C)C(=O)O; dNMeA = CN[C@H](C)C(=O)O

Experiments:
[1] = Parallel artificial membrane permeability assay (PAMPA); settings: for PAMPA_R1 / PAMPA_R3: PAMPA Papp; for PAMPA_R1: replicate 1; for PAMPA_R3: replicate 3; for Papp: PAMPA
[2] = Caco-2 permeability assay (apical to basolateral); type: in vitro ADME, human; settings: for Papp A→B: Caco-2, Caco_Papp_Average
How it was run: (§1)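 Caco-2 monolayers were grown on 0.4 μm Transwell inserts for 6 days. Peptides were applied apically at 50 μM with HBSS basolaterally and incubated 90 min at 37°C with shaking.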

Caco-2 cells = test: Caco-2 permeability assay (apical to basolateral); type: in vitro ADME, human; settings: Caco-2
How it was run: as §1

[3] = PAMPA
in vitro = settings: PAMPA, PAMPA_Papp_Avg
[4] = BQL = no significant peak detected for the peptide in the acceptor wells
[5] = BQL: No significant peak detected for the peptide in the acceptor wells
[6] = average of 3 replicates, BQL: No significant peak detected for the peptide in the acceptor wells

SMILES: CC[C@@H](C)[C@H]1NC(=O)[C@@H]2CCCN2C(=O)[C@@H](Cc2ccccc2)N(C)C(=O)[C@@H](CC(C)C)N(C)C(=O)[C@@H](C(C)C)NC(=O)[C@@H](CC(C)C)N(C)C(=O)[C@H](Cc2ccccc2)N(C)C(=O)[C@H](C(C)C)NC(=O)[C@H]2CCCN2C1=O [Design D9.7, VAL *PHE *DLEU DVAL *DLEU *DPHE PRO DILE DPRO] (cyclo([NMeF][dNMeL][dV][dNMeL][dNMeF]P[dI][dP]V))
- PAMPA_R1 [1, 4]: BQL
- PAMPA_R3 [1, 4]: BQL
- PAMPA_Papp_Avg ([1]; average of replicates R1-R3, BQL = no significant peak detected for the peptide in the acceptor wells): BQL

SMILES: CC(C)C[C@@H]1NC(=O)[C@H](CC(C)C)N(C)C(=O)[C@H]2CCCN2C(=O)[C@H]2CCCN2C(=O)[C@H](CC(C)C)NC(=O)[C@@H](CC(C)C)N(C)C(=O)[C@@H](C)NC(=O)[C@@H](CC(C)C)N(C)C(=O)[C@H]2CCCN2C(=O)[C@@H](CC(C)C)NC(=O)[C@@H](C)N(C)C1=O [Design D11.15, LEU DPRO DPRO *LEU LEU *DALA DLEU DPRO *DLEU DALA *DLEU] (cyclo(L[dNMeA][dL][dP][dNMeL][dA][dNMeL]L[dP][dP][NMeL]))
- Papp [1]: 1.29 ×10⁻⁶ cm/s
- PAMPA_R1 [1, 5]: 9.49E-07
- PAMPA_R3 [1, 5]: 1.56E-06

SMILES: CC[C@@H](C)[C@H]1NC(=O)[C@@H](C)N(C)C(=O)[C@H](CC(C)C)NC(=O)[C@@H](CC(C)C)NC(=O)[C@H]2CCCN2C(=O)[C@H](CC(C)C)N(C)C(=O)[C@@H](C(C)C)NC(=O)[C@@H](CC(C)C)N(C)C(=O)[C@H](C(C)C)NC(=O)[C@@H](C(C)C)NC(=O)[C@@H]2CCCN2C(=O)[C@H]2CCCN2C1=O [Design D12.10, *LEU DPRO DLEU LEU *DALA DILE DPRO PRO DVAL VAL *DLEU DVAL] (cyclo([dV]V[dNMeL][dV][NMeL][dP][dL]L[dNMeA][dI][dP]P))
- PAMPA_R1 [1, 5]: BQL
- PAMPA_R3 [1, 5]: BQL
- PAMPA_Papp_Avg [1, 6]: BQL

SMILES: CC[C@@H](C)[C@H]1NC(=O)[C@@H](CC(C)C)N(C)C(=O)[C@@H]2CCCN2C(=O)[C@H](C(C)C)NC(=O)[C@@H](C)N(C)C(=O)[C@@H]2CCCN2C(=O)[C@@H](CC(C)C)NC(=O)[C@@H](C(C)C)N(C)C(=O)[C@@H]2CCCN2C(=O)[C@H](C)NC(=O)[C@H](C(C)C)NC(=O)[C@@H]2CCCN2C1=O [Design D12.5, VAL PRO *DLEU DILE PRO VAL ALA PRO *DVAL DLEU PRO *DALA] (cyclo(AP[dNMeV][dL]P[dNMeA]VP[dNMeL][dI]PV))
- Papp [1]: 0.1 ×10⁻⁶ cm/s
- PAMPA_R1 [1, 5]: 1.24E-07
- PAMPA_R3 [1, 5]: 1.52E-07

SMILES: CC[C@@H](C)[C@H]1NC(=O)[C@@H]2CCCN2C(=O)[C@@H]([C@H](C)CC)NC(=O)[C@@H](C)N(C)C(=O)[C@H](CC(C)C)NC(=O)[C@@H](Cc2ccccc2)NC(=O)[C@H](CC(C)C)N(C)C(=O)[C@H]2CCCN2C(=O)[C@@H](CC(C)C)NC(=O)[C@H](CC(C)C)NC(=O)[C@H]2CCCN2C1=O [Design D11.1, DILE DPRO LEU DLEU DPRO *LEU DPHE LEU *DALA DILE PRO] (cyclo(L[dL][dP][NMeL][dF]L[dNMeA][dI]P[dI][dP]))
- Papp A→B [2]: 2.77 ×10⁻⁶ cm/s
- Caco_R1 (Caco-2 cells): 2.39
- Caco_R3 (Caco-2 cells): 3.24
- PAMPA_R1 [3]: 3.55E-06
- PAMPA_R3 [3]: 3.63E-06
- Papp (in vitro): 3.48 ×10⁻⁶ cm/s

SMILES: CC(C)C[C@@H]1NC(=O)[C@H](CC(C)C)N(C)C(=O)[C@H]2CCCN2C(=O)[C@@H](C)NC(=O)[C@@H](C)N(C)C(=O)[C@@H](C(C)C)NC(=O)[C@@H](CC(C)C)N(C)C(=O)[C@@H]2CCCN2C1=O [Design D8.30, DALA DPRO *LEU LEU PRO *DLEU DVAL *DALA] (cyclo(LP[dNMeL][dV][dNMeA][dA][dP][NMeL]))
- Papp A→B [2]: 3.97 ×10⁻⁶ cm/s
- Caco_R1 (Caco-2 cells): 4.11
- Caco_R3 (Caco-2 cells): 2.89
- PAMPA_R1 [3]: 4.61E-06
- PAMPA_R3 [3]: 4.25E-06
- Papp (in vitro): 4.32 ×10⁻⁶ cm/s

SMILES: CC(C)C[C@@H]1NC(=O)[C@@H](CC(C)C)NC(=O)[C@H]2CCCN2C(=O)[C@H](CC(C)C)NC(=O)[C@@H](CC(C)C)NC(=O)[C@H](CC(C)C)NC(=O)[C@@H]2CCCN2C(=O)[C@@H](C)NC1=O [Design D8.1, DLEU LEU DPRO DLEU LEU DALA PRO LEU] (cyclo(L[dA]PL[dL]L[dP][dL]))
- Papp ([2]; Caco-2): 23.3 ×10⁻⁶ cm/s
- Papp A→B [2]: 23.3 ×10⁻⁶ cm/s
- Caco_R1 (Caco-2 cells): 27.58
- Caco_R3 (Caco-2 cells): 23.71
- PAMPA_R1 [3]: 7.08E-06
- PAMPA_R3 [3]: 6.42E-06
- Papp (in vitro): 6.94 ×10⁻⁶ cm/s

SMILES: CC[C@@H](C)[C@H]1NC(=O)[C@H]2CCCN2C(=O)[C@H]([C@@H](C)CC)NC(=O)[C@@H]2CCCN2C(=O)[C@H]2CCCN2C(=O)[C@@H](CC(C)C)NC(=O)[C@H](CC(C)C)NC(=O)[C@H](C(C)C)NC(=O)[C@H](CC(C)C)NC(=O)[C@H](C)NC(=O)[C@H](C)NC(=O)[C@@H]2CCCN2C1=O [Design D12.1, PRO ILE DPRO DILE PRO ALA ALA LEU VAL LEU DLEU DPRO] (cyclo(I[dP][dI]PAALVL[dL][dP]P))
- PAMPA_R1 [1, 5]: BQL
- PAMPA_R3 [1, 5]: BQL
- PAMPA_Papp_Avg [1, 6]: BQL

SMILES: CC[C@H](C)[C@H]1C(=O)N[C@H](C)C(=O)N[C@@H](CC(C)C)C(=O)N[C@@H](C(C)C)C(=O)N2CCC[C@@H]2C(=O)N(C)[C@@H](CC(C)C)C(=O)N[C@@H](C(C)C)C(=O)N2CCC[C@H]2C(=O)N(C)[C@H](CC(C)C)C(=O)N[C@@H](C(C)C)C(=O)N1C [Design D10.19, DALA LEU VAL DPRO *LEU VAL PRO *DLEU VAL *ILE] (cyclo(LV[dP][NMeL]VP[dNMeL]V[NMeI][dA]))
- Papp A→B [2]: 17.1 ×10⁻⁶ cm/s
- Papp at 90 min, 50 µM ([2]; human, Caco-2): > 10 ×10⁻⁶ cm/s
- Caco_R1 (Caco-2 cells): 15.38
- Caco_R3 (Caco-2 cells): 17.24
- PAMPA_R1 [3]: 7.24E-06
- PAMPA_R3 [3]: 7.38E-06
- Papp (in vitro): 6.36 ×10⁻⁶ cm/s

SMILES: CC(C)C[C@@H]1C(=O)N[C@H](CC(C)C)C(=O)N2CCC[C@@H]2C(=O)N2CCC[C@@H]2C(=O)N(C)[C@@H](CC(C)C)C(=O)N[C@H](CC(C)C)C(=O)N2CCC[C@@H]2C(=O)N2CCC[C@H]2C(=O)N1C [Design D8.32, DPRO DPRO *LEU DLEU DPRO PRO *DLEU DLEU] (cyclo([dNMeL][dL][dP][dP][NMeL][dL][dP]P))
- Papp A→B [2]: 2.73 ×10⁻⁶ cm/s
- Caco_R1 (Caco-2 cells): 2.78
- Caco_R3 (Caco-2 cells): 2.54
- PAMPA_R1 [3]: 5.82E-06
- PAMPA_R3 [3]: 5.16E-06
- Papp (in vitro): 5.37 ×10⁻⁶ cm/s

SMILES: CC[C@H](C)[C@@H]1NC(=O)[C@H]2CCCN2C(=O)[C@@H]2CCCN2C(=O)[C@@H](C(C)C)NC(=O)[C@@H](C)N(C)C(=O)[C@H](C)N(C)C(=O)[C@@H](CC(C)C)N(C)C(=O)[C@@H](C(C)C)NC1=O [Design D8.26, DVAL *DLEU *ALA *DALA DVAL PRO DPRO ILE] (cyclo(I[dV][dNMeL][NMeA][dNMeA][dV]P[dP]))
- Papp A→B [2]: 0.647 ×10⁻⁶ cm/s
- Caco_R1 (Caco-2 cells): 0.79
- Caco_R3 (Caco-2 cells): 0.94
- PAMPA_R1 [3]: 1.58E-07
- PAMPA_R3 [3]: 2.69E-07
- Papp (in vitro): 0.255 ×10⁻⁶ cm/s

SMILES: CC[C@H](C)[C@@H]1NC(=O)[C@@H](C(C)C)NC(=O)[C@@H](CC(C)C)N(C)C(=O)[C@H]2CCCN2C(=O)[C@@H](CC(C)C)NC(=O)[C@@H](CC(C)C)N(C)C(=O)[C@H](CC(C)C)NC(=O)[C@H]2CCCN2C(=O)[C@H](C)N(C)C(=O)[C@H]2CCCN2C1=O [Design D10.41, DPRO *DLEU DVAL ILE DPRO *ALA DPRO LEU *DLEU DLEU] (cyclo(I[dP][NMeA][dP]L[dNMeL][dL][dP][dNMeL][dV]))
- Papp A→B [2]: 7.66 ×10⁻⁶ cm/s
- Caco_R1 (Caco-2 cells): 4.42
- Caco_R3 (Caco-2 cells): 10.34
- PAMPA_R1 [3]: 5.92E-06
- PAMPA_R3 [3]: 5.38E-06
- Papp (in vitro): 5.69 ×10⁻⁶ cm/s

SMILES: CC[C@H](C)[C@@H]1NC(=O)[C@@H](C(C)C)NC(=O)[C@@H]2CCCN2C(=O)[C@@H](CC(C)C)N(C)C(=O)[C@@H](C(C)C)NC(=O)[C@H](CC(C)C)N(C)C(=O)[C@H]2CCCN2C(=O)[C@@H](C)NC(=O)[C@H](Cc2ccccc2)N(C)C(=O)[C@H]2CCCN2C1=O (single isomer, unassigned) [Design D10.3.p1, ILE DPRO *PHE DALA DPRO *LEU DVAL *DLEU PRO DVAL]
- Papp A→B [2]: 3.15 ×10⁻⁶ cm/s
- Caco_R1 (Caco-2 cells): 1.3
- Caco_R3 (Caco-2 cells): 6.15
- PAMPA_R1 [3]: 3.04E-06
- PAMPA_R3 [3]: 1.85E-06
- Papp (in vitro): 2.52 ×10⁻⁶ cm/s

SMILES: CC[C@H](C)[C@@H]1NC(=O)[C@@H]2CCCN2C(=O)[C@H]2CCCN2C(=O)[C@@H](CC(C)C)NC(=O)[C@@H](CC(C)C)N(C)C(=O)[C@@H](C(C)C)NC(=O)[C@H](C(C)C)NC(=O)[C@H]2CCCN2C(=O)[C@@H]2CCCN2C(=O)[C@H]([C@@H](C)CC)NC(=O)[C@H](C)N(C)C1=O [Design D11.13, PRO DPRO VAL DVAL *DLEU DLEU DPRO PRO ILE *ALA ILE] (cyclo(I[NMeA]IP[dP]V[dV][dNMeL][dL][dP]P))
- Papp A→B [2]: 4.5 ×10⁻⁶ cm/s
- Caco_R1 (Caco-2 cells): 4.34
- Caco_R3 (Caco-2 cells): 4.75
- PAMPA_R1 [3]: 9.91E-07
- PAMPA_R3 [3]: 1.30E-06
- Papp (in vitro): 1.07 ×10⁻⁶ cm/s
